Laboratory results: patent US11708318B2, “Polymorphic forms of RAD1901-2HCL” (Radius Pharmaceuticals, Inc., priority 2017, dated 2023)

What was measured:
[1] = Gravimetric Vapour Sorption (GVS), with XRPD of the recovered sample; assay type: physicochemical
Method: Sorption isotherms were obtained using a SMS DVS Intrinsic moisture sorption analyzer, controlled by DVS Intrinsic Control software v1.0.1.2 (or v 1.0.1.3). The sample temperature was maintained at 25° C. by the instrument controls. The humidity was controlled by mixing streams of dry and wet nitrogen, with a total flow rate of 200 ml/min. The relative humidity was measured by a calibrated Rotronic probe (dynamic range of 1.0-100% RH), located near the sample. The weight change, (mass relaxation) of the sample as a function of % RH was constantly monitored by the microbalance (accuracy ±0.005 mg).
A sample (e.g., 20 mg) was placed in a tared mesh stainless steel basket under ambient conditions. The sample was loaded and unloaded at 40% RH and 25° C. (typical room conditions). A moisture sorption isotherm was performed as outlined below (2 scans giving 1 complete cycle). Standard isotherms were performed at 25° C. at 10% RH intervals over a 0-90% RH range. Data analysis was carried out using Microsoft Excel using DVS Analysis Suite v6.2 (or 6.1 or 6.0).
In a cycle of 2 scans, the first scan was performed with adsorption of 40-90% RH, followed by a second scan with desorption of 90-0% RH and adsorption of 0-40% RH, with intervals of 10% RH, at 25° C. with stability dm/dt of 0.002% ° C./min. The sorption time was 6 hr time out.
The sample was recovered after completion of the isotherm and re-analyzed by XRPD. Custom moisture sorption methods were also performed at 25° C. at fixed % RH intervals over a 0-95% RH range, with the purpose to fully understand the sorption/desorption behavior of the compound under elevated conditions.
To further explore the humidity behavior of Sample 1 (Form 1) upon exposure to high RH (>90%), custom GVS experiments were designed and carried out. Initially, the sample was treated by holding at 90 and then 95% RH for ˜12 hours to see if hydrate formation could be observed (HighRH method of Steps 1 and 2 of Table 2, FIGS. 6C-6D).
To test the stability of the hydrated state, GVS method HighRH_Desorp_3 was designed with a desorption step and subsequent adsorption (see Table 2 with steps 1-4, FIGS. 6E-6F).
Finally, to ensure complete conversion to the anhydrous and hydrated forms, a GVS experiment was designed to increase both the length of the desorption step at 0% RH, and the adsorption step at 95% RH, respectively (Table 3). Based on the weight stabilization observed in the kinetic plots for Sample 1 in HighRH and HighRH_Desorp_3 methods discussed above (FIGS. 6D and 6F), a holding time of 800 mins at 0% RH and 1600 mins at 95% RH were chosen. A double cycle was also recorded for this experiment to observe whether the sample would return to Form 1 or form a mixed anhydrous/hydrated species (see Table 3, FIGS. 6G-6H).

[2] = Solubility assessment of Sample 1 (majorly Form 1) in 24 solvent systems; assay type: physicochemical

## CCNCCc1ccc(CN(CC)c2cc(OC)ccc2[C@@H]2CCc3cc(O)ccc3C2)cc1.Cl.Cl [Sample 1]
[1]; 25° C., 0-90% RH
  GVS uptake 0-90% RH: 1.8% wt.
[1]; HighRH method, held at 95% RH for ~12 hours
  GVS uptake when held at 95% RH: 5-6 % wt.
[1]; above 90% RH
  Solid form on exposure to high RH (>90%) by GVS: irreversibly converted to a hydrate (Form 3)
[1]; double cycle, 1600 mins at 95% RH, 800 mins at 0% RH
  XRPD post GVS (HighRH_DoubleCycle_2 method): formation of the hydrate (Form 3)
[1]; held at 90 and then 95% RH for ~12 hours
  XRPD post GVS (HighRH method): mixture of states or incomplete conversion
[1]; single cycle: to 95% RH, desorption to 0% RH, adsorption 0-40% RH
  XRPD post GVS (HighRH_Desorp_3 method): mixture of Form 1 and Form 3
[2]; alcohols, esters, hydrocarbon solvents
  Solubility in alcohols, esters, and hydrocarbon solvents: low solubility
[2]; t-butanol/water (1:1)
  Solubility in t-butanol/water (1:1): high solubility
